# According to patent US20060134119A1, “Drugs containing galectin 9” (priority 2003, published 2006):
# What was measured:
# HL-60 = test: Apoptosis analysis by PI method in HL60 cells; format: cell-based
# Protocol: (§1) MOLT-4 (T cell), Jurkat (T cell), BALL-1 (B cell), THP-1 (acute monocytic leukemia derived cell), and HL60 (acute promyelotic leukemia derived cell) cells were obtained from American Type Culture Collection (ATCC). All the cell lines were maintained in an RPMI-1640 medium (Sigma, St. Louis, US) supplemented with 10% FCS in 5% Co2 at 37° C. Lactose (30 mM) was added to the culture medium to inhibit Gal-9 activity. The same concentration of sucrose was used as a control.
# (§2) Cells that underwent apoptosis induction were centrifuged at 4° C. for 5 min at 1,000 rpm, and the cell pellet was resuspended in PBS (300 μL), and adjusted to a final concentration of 70% by gradually adding 100% cold ethanol (700 μL) to the suspended cells with vortexing. […] Stained cells were analyzed by flow cytometry (Sandstrom, K. et al., J Immunol Methods, 240: 55 (2000) and Zhang L. et al., Cancer Lett, 142: 129 (1999)) after removing aggregated cells through a nylon mesh and increasing the cell volume with PBS. […]
# (§3) Apoptotic activity was measured by the PI method. […] Subsequently, incubation with PI leads to a reduction in the fluorescence intensity of apoptotic cells. Apoptosis was examined by the percentage of the cells wherein their fluorescence intensity was reduced. […]
# MCF-7 = test: Apoptosis analysis by PI method in MCF-7 cells; format: cell-based; conditions: incubation with galectin-9 at least 48 hr or more
# Protocol: (§4) Apoptotic activity was measured by the PI method. When cells are incubated with galectin-9, washed, then subjected to alcohol-fixation, and fragmented DNAs flow out of the cell. Subsequently, incubation with PI leads to a reduction in the fluorescence intensity of apoptotic cells. Apoptosis was examined by the percentage of the cells wherein their fluorescence intensity was reduced. […] This induction was at the same level as H2O2 (hydrogen peroxide solution) that was used as a positive control. In addition, the same results were obtained by another method for examining apoptosis, TUNEL assay.
# Jurkat = test: Apoptosis analysis by PI method in Jurkat cells; format: cell-based
# Protocol: as §1, §2, §3
# Daudi = test: Apoptosis analysis by PI method in Daudi cells; format: cell-based; conditions: incubation with galectin-9 at least 48 hr or more
# Protocol: as §4
# [1] = test system: malignant melanoma cell line MM-RU; test: Apoptosis analysis by PI method in malignant melanoma cell line MM-RU; format: cell-based, human; conditions: incubated with galectin-9 for 72 hr, FIG. 10
# Protocol: as §4
# CD8 T Cell = test: Apoptosis induction in non-activated normal CD8 T cells (Table 4); format: cell-based; conditions: 1 μM galectin-9, 1 μM galectin-3
# Protocol: For example, measurements of apoptosis induction in the presence of 1 μM galectin-9 are as shown in Table 4 below (also 1 μM for galectin-3 in Table 4).
# MOLT-4 cells [2] = test: Effects of Gal-9 on DEX-, anti-Fas Ab- or etoposide-induced apoptosis; format: cell-based, human; conditions: FIG. 9
# From the text: The following agents were purchased from suppliers below: DEX (BioVision, CA, US), anti-Fas Ab (clone CH-11, MBL), TNFα (Genzyme, Cambridge, Mass., US), C2 ceramide (SIGMA), and etoposide (Biovision).
# Effects of Gal-9 on the apoptosis induced by other stimuli (e.g. DEX, anti-Fas Ab, and etoposide) were examined.
# THP-1 = test: Apoptosis analysis by PI method in THP-1 cells; format: cell-based
# Protocol: as §1, §2, §3
# HMC-1 = test: Apoptosis analysis by PI method in HMC-1 cells; format: cell-based; conditions: incubation with galectin-9 at least 48 hr or more
# Protocol: as §4
# KATO-III = test: Apoptosis analysis by PI method in KATO-III cells; format: cell-based; conditions: incubation with galectin-9 at least 48 hr or more
# Protocol: as §4
# BALL-1 = test: Apoptosis analysis by PI method in BALL-1 cells; format: cell-based
# Protocol: as §1, §2, §3
# MM-RU = test: Induction of cell aggregation in MM-RU; format: cell-based, human; conditions: for aggregation: FIG. 14
# Protocol: Recombinant galectin-9 prepared via gene transfer into E. coli was added to MM-RU exogenously, and the efficacy of galectin-9 was then examined. As a result, galectin-9 induced aggregation of MM-RU at the concentration of 0.1 μM or higher. In addition, the galectin-9 efficacy was concentration-dependent, and significant between 0.3-1.0 μM.
# MOLT-4 cells [3] = test: Ca2+ influx, Fluo-3 assay by flow cytometry; format: cell-based, human; conditions: Fluo-3 assay, FIG. 8
# Protocol: Cells (approx. 10^6 to 10^7 cells/mL) in the culture medium (10% FCS, RPMI-1640 containing 10 mM HEPES, pH 7.2) were incubated with fluo-3 AM (final concentration 10 μM, Dojindo, Kumamoto, Japan), an intracellular calcium indicator, at 37° C. for 30 min (Sharp, B. M. et al., Proc. Natl. Acad. Sci. USA, 93: 8294 (1996)). Then the cells were washed and resuspended in the culture medium (final concentration, approx. 2×10^5 cells/mL per sample). Intracellular calcium level was measured by flow cytometry. The resting cells were stimulated at 1 min after their fluorescence intensities were measured.
# Next, sequential measurement was restarted until different stimuli were applied. In lactose inhibition assay, cells were stimulated in the presence of 30 mM lactose. Sucrose (30 mM) was used as a control (Sano, H. et al., J. Imnunol., 165: 2156 (2000)). A23187 (calcium ionophore, final concentration 5 ng/mL, Wako, Osaka, Japan) was used as a positive control.
# eosinophils = test: Effect of Gal-9 on induced apoptosis of eosinophils; format: cell-based
# [4] = recombinant galectin-9 added exogenously
substance,measurement,setting,value
Galectin-9: Recombinant human galectin-9 expressed in E. coli and purified on lactose-agarose,"apoptosis induction, Gal9 (+)","HL-60; HL-60, incubation with galectin-9 at least 48 hr or more",64.6
same,apoptosis induction,"HL-60; rGal-9 1 μM, 24 hr, FIG. 3",induced
same,"apoptosis induction, Gal9 (+)",MCF-7,14.1
same,"apoptosis induction, Gal9 (+)","Jurkat; Jurkat, incubation with galectin-9 at least 48 hr or more",66.6
same,apoptosis induction,"Jurkat; rGal-9 1 μM, 24 hr, FIG. 3",induced
same,"apoptosis induction, Gal9 (+)",Daudi,58.5
same,apoptosis induction,[1],strongly induced
same,"apoptosis induction, CD8 T Cell Resting",CD8 T Cell,1.4
same,effect of rGal-9 on anti-Fas Ab-induced apoptosis,MOLT-4 cells [2],additional effects
same,effect of rGal-9 on etoposide-induced apoptosis,MOLT-4 cells [2],additional effects
same,"percentage (%) of apoptotic cells, rGal-9 with DEX",MOLT-4 cells [2],scarcely little or no difference
same,"apoptosis induction, Gal9 (+)","THP-1; THP-1, incubation with galectin-9 at least 48 hr or more",61.2
same,apoptosis induction,"THP-1; rGal-9 1 μM, 24 hr, FIG. 3",induced
same,"apoptosis induction, Gal9 (+)",HMC-1,26.2
same,"apoptosis induction, Gal9 (+)",KATO-III,30.5
same,"apoptosis induction, Gal9 (+)","BALL-1; BALL-1, incubation with galectin-9 at least 48 hr or more",26.0
same,apoptosis induction,"BALL-1; rGal-9 1 μM, 24 hr, FIG. 3",induced
same,aggregation,MM-RU; 2 hr after addition,aggregation was observed
same,aggregation,MM-RU; 12 hr after addition,more intensive aggregation
same,concentration at which aggregation of MM-RU was induced,MM-RU; [4],≥ 0.1 µM
same,concentration at which the efficacy was significant,MM-RU; [4],0.3 to 1.0 µM
same,calcium influx,MOLT-4 cells [3]; A23187 final concentration 5 ng/mL,increased calcium influx
same,time within which calcium influx increased after addition,MOLT-4 cells [3],10 to 20 s
same,effect on DEX-induced apoptosis,eosinophils,inhibits
same,effect on anti-Fas Ab-induced apoptosis,eosinophils,stimulates
